From patent US10500169B2, “Supression of IgE production by compounds derived from traditional chinese medicine” (Sean N. Parker Foundation, priority 2014, dated 2019)

Tested on: CACO-2 cells
Test: Berberine uptake by Caco-2 cells, LC-MS
Format: in vitro ADME
Details: 50 μg/mL berberine, 1 hour
Procedure: Experiments were performed on 24 well plates for berberine uptake assay. CACO-2 cells were seeded in each well at the concentration of 1×10^5 cells/well. Cells were then allowed to grow to confluence and differentiation for 2 weeks in culture medium (DMEM+10% FBS, high glucose and sodium pyruvate and supplemented with 1% Essential Amino Acids). On the experiment day, cells were washed three times with pre-warmed HBSS and incubated with 1 ml warm HBSS for 30 minutes.
After conditioning with HBSS, cells were incubated at 37° C. with 50 μg/mL berberine with or without 250 μg/mL of nine different herbal medicines, fruits of Prunus mume (P. mume), skin of the fruits of Zanthoxylum schinifolium (Z. schinifolium), roots of Angelica sinensis (A. sinensis), rhizome of Zingiber officinalis (Z. officinalis), twigs of Cinnamomum cassia (C. cassia), bark of Phellodendron chinensis (P. chinensis), rhizome of Coptis chinensis (C. chinensis), roots of Panax ginseng (P. ginseng) and fruiting body of Ganoderma lucidum (G. lucidum). Control wells received 0, 50, 100 and 200 μg of berberine alone.
After 1 hour, cells were washed 3 times with ice-cold HBSS and scraped in 500 μl of ice cold HBSS and centrifuged. […] 75 μL of each sample was analyzed for its berberine concentration by using LC-MS. […]
All samples were analyzed using waters LC-MS system (Waters corp. MA) for berberine detection. […]

## COc1ccc2cc3[n+](cc2c1OC)CCc1cc2c(cc1-3)OCO2 [berberine]
  Concentration of berberine in Cacao-2 cells, berberine standard alone: 2950 ng/mL
